According to patent US8846737B2, “Compound” (Sterix Limited, priority 2009, dated 2014):

Experiments:
Aromatase = target: T1, Aromatase (Homo sapiens, UniProt P11511); assay: Aromatase activity in JEG3 cells (Protocol 6); assay type: cell-based; conditions: intact JEG3 cells, [1β-3H]androstenedione, 30 min
T1 construct: host or cells: JEG3 choriocarcinoma cells, intact monolayers
T1 sequence (P11511 1-503): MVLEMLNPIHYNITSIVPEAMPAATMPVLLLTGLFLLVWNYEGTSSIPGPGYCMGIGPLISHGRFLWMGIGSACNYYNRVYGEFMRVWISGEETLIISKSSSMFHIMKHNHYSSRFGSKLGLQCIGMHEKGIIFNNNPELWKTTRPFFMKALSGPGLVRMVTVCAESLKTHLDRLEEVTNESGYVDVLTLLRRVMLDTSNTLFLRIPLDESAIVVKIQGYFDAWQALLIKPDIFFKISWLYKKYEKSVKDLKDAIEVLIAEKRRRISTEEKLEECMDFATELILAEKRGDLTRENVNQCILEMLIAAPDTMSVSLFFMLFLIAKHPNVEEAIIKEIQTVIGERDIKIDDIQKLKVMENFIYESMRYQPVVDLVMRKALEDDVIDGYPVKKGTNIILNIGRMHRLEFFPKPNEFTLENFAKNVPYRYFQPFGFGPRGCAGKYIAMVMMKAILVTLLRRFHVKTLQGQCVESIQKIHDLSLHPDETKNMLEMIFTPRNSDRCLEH
Procedure: Assay for Determining Aromatase Activity Using JEG3 Cells
Aromatase activity is measured in JEG3 choriocarcinoma cells, obtained from the ATCC. […] During the aromatase reaction, ^3H2O is liberated which can be quantified using a liquid scintillation spectrometer. […] The number of cell nuclei per flask is determined using a Coulter Counter after treating the cell monolayers with Zaponin.
Aromatase inhibition was measured in accordance with Protocol 6.

Steroid sulphatase (STS) = target: T2, Steroid sulphatase (STS) (Homo sapiens, UniProt P08842); assay: Inhibition of steroid sulphatase activity in JEG3 cells (Protocol 1); assay type: cell-based; conditions: intact JEG3 cells, [6,7-3H]oestrone-3-sulphate, 3-4 hours
T2 construct: host or cells: JEG3 choriocarcinoma cells, intact monolayers
T2 sequence (P08842 22-583): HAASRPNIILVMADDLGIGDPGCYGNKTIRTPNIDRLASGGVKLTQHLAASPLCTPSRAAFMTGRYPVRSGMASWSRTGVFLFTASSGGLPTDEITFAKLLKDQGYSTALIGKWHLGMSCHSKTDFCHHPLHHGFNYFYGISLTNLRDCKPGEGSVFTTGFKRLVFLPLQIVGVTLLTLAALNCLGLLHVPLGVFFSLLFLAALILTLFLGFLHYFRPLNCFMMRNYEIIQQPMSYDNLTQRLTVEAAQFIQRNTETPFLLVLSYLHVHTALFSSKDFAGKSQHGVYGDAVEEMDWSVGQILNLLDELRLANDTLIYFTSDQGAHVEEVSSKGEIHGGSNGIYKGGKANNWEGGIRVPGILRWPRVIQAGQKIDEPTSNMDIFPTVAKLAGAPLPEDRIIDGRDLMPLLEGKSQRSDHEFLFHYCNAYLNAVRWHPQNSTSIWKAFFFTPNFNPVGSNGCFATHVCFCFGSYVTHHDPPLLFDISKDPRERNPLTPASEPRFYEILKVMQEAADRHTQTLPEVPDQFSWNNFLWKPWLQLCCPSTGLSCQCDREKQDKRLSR
Procedure: Assay for Determining STS Activity Using Cancer Cells
Inhibition of Steroid Sulphatase Activity in JEG3 Cells
Steroid sulphatase activity is measured in vitro using intact JEG3 choriocarcinoma cells.
Cells are maintained in Minimal Essential Medium (MEM) containing 20 mM HEPES, 5% foetal bovine serum, 2 mM glutamine, non-essential amino acids and 0.075% sodium bicarbonate. Up to 30 replicate 25 cm^2 tissue culture flasks are seeded with approximately 1×10^5 cells/flask using the above medium Cells are grown to 80% confluency and the medium is changed every third day.
Intact monolayers of JEG3 cells in triplicate 25 cm^2 tissue culture flasks are washed with Earle's Balanced Salt Solution (EBSS) and incubated for 3-4 hours at 37° C. with 5 pmol (7×10^5 dpm) [6, 7-3H]oestrone-3-sulphate (specific activity 60 Ci/mmol) in serum-free MEM (2.5 ml) together with oestrone-3-sulphamate (11 concentrations: 0; 1fM; 0.01 pM; 0.1 pM, 1 pM; 0.01 nM; 0.1 nM; 0.01 mM; 0.1 mM; 1 mM). After incubation each flask is cooled and the medium (1 ml) is pipetted into separate tubes containing [14C]oestrone (7×10^3 dpm) (specific activity 97 Ci/mmol). The mixture is shaken thoroughly for 30 seconds with toluene (5 ml) Experiments have shown that >90% [14C]oestrone and <0 1% [3H]oestrone-3-sulphate is removed from the aqueous phase by this treatment A portion (2 ml) of the organic phase is removed, evaporated and the 3H and 14C content of the residue determined by scintillation spectrometry The mass of oestrone-3-sulphate hydrolysed was calculated from the 3H counts obtained (corrected for the volumes of the medium and organic phase used, and for recovery of [14C] oestrone added) and the specific activity of the substrate Each batch of experiments includes incubations of microsomes prepared from a sulphatase-positive human placenta (positive control) and flasks without cells (to assess apparent non-enzymatic hydrolysis of the substrate). The number of cell nuclei per flask is determined using a Coulter Counter after treating the cell monolayers with Zaponin One flask in each batch is used to assess cell membrane status and viability using the Trypan Blue exclusion method (Phillips, H J. (1973) In: Tissue culture and applications, [eds: Kruse, D. F. & Patterson, M. K]; pp 406-408; Academic Press, New York)
Results for steroid sulphatase activity are expressed as the mean±1S.D. of the total product (oestrone+oestradiol) formed during the incubation period (3-4 hours) calculated for […] and, for values showing statistical significance, as a percentage reduction (inhibition) over incubations containing no oestrone-3-sulphamate. Unpaired Student's t-test was used to test the statistical significance of results
Sterioid sulphatase inhibition was measured in accordance with Protocol 1

Row | IC50 (Aromatase) | IC50 (Steroid sulphatase (STS)) | Compound
1 | 0.015 ± 0.005 nM | 0.83 ± 0.15 nM | N#Cc1ccc(N(Cc2ccc(OS(N)(=O)=O)c(Cl)c2)n2cnnc2)cc1-c1ccccc1 [CAB06049, 2-Chloro-4-(((6-cyanobiphenyl-3-yl)(4H-1,2,4-triazol-4-yl)amino)methyl)phenyl sulfamate]
2 | < 0.1 nM |  | N#Cc1ccc(N(Cc2ccc(O)cc2)n2cnnc2)cc1-c1ccccc1 [CAB06021, 5-((4-Hydroxybenzyl)(4H-1,2,4-triazol-4-yl)amino)biphenyl-2-carbonitrile]
3 | 0.26 ± 0.12 nM |  | COc1ccc(-c2cc(Nn3cnnc3)ccc2C#N)cc1 [CAB06046, 5-(4H-1,2,4-Triazol-4-ylamino)-4′-methoxybiphenyl-2-carbonitrile]
4 | 3.6 ± 0.4 nM |  | N#Cc1ccc(N(Cc2ccc(O)c(Br)c2)n2cnnc2)cc1-c1ccccc1 [CAB06026, 5-((3-Bromo-4-hydroxybenzyl)(4H-1,2,4-triazol-4-yl)amino)biphenyl-2-carbonitrile]
5 | 0.75 ± 0.18 nM | 240 ± 60 nM | N#Cc1ccc(-c2cc(N(Cc3ccc(OS(N)(=O)=O)cc3)n3cnnc3)ccc2C#N)cc1 [CAB06088, 4-(((4′,6-Dicyanobiphenyl-3-yl)(4H-1,2,4-triazol-4-yl)amino)methyl)phenyl sulfamate]
6 | < 0.1 nM | 0.12 ± 0.02 nM | N#Cc1ccc(N(Cc2c(F)cc(OS(N)(=O)=O)cc2F)n2cnnc2)cc1-c1ccccc1 [PMW04153, 4-(((6-Cyanobiphenyl-3-yl)(4H-1,2,4-triazol-4-yl)amino)methyl)-3,5-difluorophenyl sulfamate]
7 | 0.15 ± 0.03 nM | 2.3 ± 0.9 nM | N#Cc1ccc(N(Cc2ccc(OS(N)(=O)=O)c(F)c2)n2cnnc2)cc1-c1ccccc1 [CAB06044, 4-(((6-Cyanobiphenyl-3-yl)(4H-1,2,4-triazol-4-yl)amino)methyl)-2-fluorophenyl sulfamate]
8 | 0.018 ± 0.01 nM | 0.13 ± 0.01 nM | N#Cc1ccc(N(Cc2ccc(OS(N)(=O)=O)c(Br)c2)n2cnnc2)cc1-c1ccccc1 [CAB06045, 2-Bromo-4-(((6-cyanobiphenyl-3-yl)(4H-1,2,4-triazol-4-yl)amino)methyl)phenyl sulfamate]
9 | 1.6 ± 0.6 nM |  | N#Cc1ccc(N(Cc2ccc(O)c(F)c2)n2cnnc2)cc1-c1ccccc1 [CAB06043, 5-((3-Fluoro-4-hydroxybenzyl)(4H-1,2,4-triazol-4-yl)amino)biphenyl-2-carbonitrile]
10 | 0.015 ± 0.001 nM | 22 ± 6 nM | COc1ccc(-c2cc(N(Cc3ccc(OS(N)(=O)=O)cc3)n3cnnc3)ccc2C#N)cc1 [CAB06077]
11 | 0.39 ± 0.09 nM |  | N#Cc1ccc(Nn2cnnc2)cc1-c1ccccc1 [CAB06022, 5-(4H-1,2,4-Triazol-4-ylamino)biphenyl-2-carbonitrile]
12 | 0.33 ± 0.01 nM |  | N#Cc1ccc(N(Cc2ccccc2)n2cnnc2)cc1-c1ccc(O)cc1 [CAB06052, 5-(Benzyl-[1,2,4]triazol-4-yl-amino)-4′-hydroxy-biphenyl-2-carbonitrile]

Continued, compound first:

Row | Compound | IC50 (Aromatase) | IC50 (Steroid sulphatase (STS))
13 | N#Cc1ccc(N(Cc2ccc(O)cc2)n2cnnc2)cc1CN1CCCC1 [Compound 40] | 8 nM | 
14 | N#Cc1ccc(N(CCc2c(F)cc(OS(N)(=O)=O)cc2F)n2cnnc2)cc1 [Compound 25] |  | 485 ± 50.7 nM
15 | CN1CCN(c2cc(N(Cc3ccc(OS(N)(=O)=O)cc3)n3cnnc3)ccc2C#N)CC1 [Compound 23] | 89 ± 10.2 nM | 2800 ± 985 nM
16 | N#Cc1ccc(N(Cc2ccc(OS(N)(=O)=O)cc2)n2cnnc2)cc1-c1ccncc1 [Compound 51] | 36 ± 1.7 nM | 198 ± 37 nM
17 | N#Cc1ccc(N(Cc2ccc(OS(N)(=O)=O)cc2F)n2cnnc2)cc1-c1ccccc1 [Compound 31] | 1.43 ± 0.55 nM | 0.15 ± 0.03 nM
18 | N#Cc1ccc(N(Cc2ccc(OS(N)(=O)=O)cc2)n2cnnc2)cc1Cc1ccccc1 [Compound 13] | < 0.1 nM | 41 ± 3 nM
19 | N#Cc1ccc(N(Cc2ccc(O)c(F)c2F)n2cnnc2)cc1-c1ccccc1 [Compound 33] | 1 ± 0.3 nM | 
20 | N#Cc1ccc(N(Cc2ccc(OS(N)(=O)=O)cc2)n2ccnc2)cc1-c1ccccc1 [Compound 32] | < 0.1 nM | 9.7 ± 4.2 nM
21 | N#Cc1ccc(N(CCC(=O)c2ccc(OS(N)(=O)=O)cc2)n2cnnc2)cc1-c1ccccc1 [Compound 29] | < 0.1 nM | 1150 ± 50 nM
22 | N#Cc1ccc(N(Cc2ccc(OS(N)(=O)=O)c(Br)c2)n2cnnc2)cc1-c1ccsc1 [Compound 9] | 2.6 ± 0.2 nM | 3.9 ± 0.8 nM
23 | N#Cc1ccc(N(Cc2ccc(OS(N)(=O)=O)cc2)n2cnnc2)cc1-c1ccccc1 [Compound 3] | 0.25 ± 0.03 nM | 3 ± 0.5 nM
24 | N#Cc1ccc(N(Cc2ccc(OS(N)(=O)=O)cc2)n2cnnc2)cc1N1CCOCC1 [Compound 21] | 44 ± 5 nM | 
25 | N#Cc1ccc(N(Cc2ccc(OS(N)(=O)=O)cc2)n2cnnc2)c2ccccc12 [Compound 27] | 200 ± 5 nM | 
26 | N#Cc1ccc(N(Cc2ccc(OS(N)(=O)=O)cc2)n2cnnc2)cc1N1CCCC1 [Compound 15] | < 0.1 nM | 60 ± 7 nM
27 | N#Cc1ccc(N(Cc2ccc(O)cc2)n2cnnc2)cc1-c1ccncc1 [Compound 50] | 4.03 ± 0.29 nM | 
28 | N#Cc1ccc(N(Cc2ccc(O)cc2)n2cnnc2)cc1Oc1ccccc1 [Compound 56] | 1.82 ± 0.03 nM | 
29 | N#Cc1ccc(N(Cc2ccc(OS(N)(=O)=O)cc2)n2cnnc2)cc1N1CCCCC1 [Compound 17] | 3.4 ± 0.2 nM | 43 ± 6 nM
30 | N#Cc1ccc(N(Cc2ccc(OS(N)(=O)=O)c(F)c2F)n2cnnc2)cc1-c1ccccc1 [Compound 34] | 0.8 ± 0.3 nM | 2.8 ± 0.9 nM
31 | N#Cc1ccc(N(Cc2ccc(Br)cc2)n2cnnc2)cc1-c1ccccc1 [Compound 1] | < 0.1 nM | 
32 | N#Cc1ccc(N(Cc2ccc(O)cc2)n2cnnc2)cc1Cc1ccccc1 [Compound 12] | < 0.1 nM | 
33 | N#Cc1ccc(N(Cc2c(F)cc(O)cc2F)n2cnnc2)cc1-c1ccc(F)cc1 [Compound 46] | 4.1 ± 0.2 nM | 
34 | COc1ccc(Cc2cc(N(Cc3ccc(O)cc3)n3cnnc3)ccc2C#N)cc1 [Compound 44] | 3.1 ± 0.4 nM | 
35 | N#Cc1ccc(C(c2ccc(O)cc2)n2cncn2)cc1-c1ccccc1 (stereo not drawn) [Compound 37] | 0.23 ± 0.04 nM | 
36 | N#Cc1ccc(N(Cc2ccc(Br)cc2)n2cnnc2)c(-c2ccccc2)c1 [Compound 2] | 960 ± 53 nM | 
37 | COc1ccc(-c2cc(N(Cc3c(F)cc(O)cc3F)n3cnnc3)ccc2C#N)cc1 [Compound 35] | < 0.1 nM | 
38 | N#Cc1ccc(N(CCc2c(F)cc(O)cc2F)n2cnnc2)cc1 [Compound 24] | 0.14 ± 0.03 nM | 
39 | N#Cc1ccc(N(Cc2ccc(O)cc2F)n2cnnc2)cc1-c1ccccc1 [Compound 30] | 0.35 ± 0.06 nM | 
40 | CN1CCN(c2cc(N(Cc3ccc(O)cc3)n3cnnc3)ccc2C#N)CC1 [Compound 22] | 13.8 ± 4.51 nM | 
